Measured values: US10611740B2, “Aryl dihydro-2H-benzo[b][1,4]oxazine sulfonamide and related compounds for use as agonists of RORγ and the treatment of disease” (Lycera Corporation, priority 2015, dated 2020)

Legend:
[1] = biological target: T1, RORγ-LBD (Homo sapiens, UniProt P51449); test: RORγ-Ligand Binding Domain (LBD) TR-FRET Assay; type: biochemical;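 as to TR-FRET Assay Max Response: 665/615 nm ratio relative to signal without ursolic acid or compound set at 100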
T1 construct: made in house; host or cells: SF9 cells (baculovirus)
T1 sequence (P51449 269-508 limits assumed): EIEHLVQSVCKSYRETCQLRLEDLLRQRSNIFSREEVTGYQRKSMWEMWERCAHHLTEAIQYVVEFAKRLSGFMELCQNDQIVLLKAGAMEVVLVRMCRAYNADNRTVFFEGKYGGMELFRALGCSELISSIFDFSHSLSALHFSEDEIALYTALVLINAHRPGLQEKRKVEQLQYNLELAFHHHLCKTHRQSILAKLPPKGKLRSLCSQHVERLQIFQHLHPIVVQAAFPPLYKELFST
Outline: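 His-tagged RORγ-LBD from SF9 baculovirus lysate, ~3 nM final, in 50 mM Tris pH 7.0, 50 mM KCl, 1 mM EDTA, 0.1 mM DTT, 0.01% BSA. Biotinylated SRC1 LXXLL peptide at 200 nM final with 2 μM ursolic acid; TR-FRET read-out, 1% DMSO final.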

[2] = biological target: T2, Gal4-RORγ-LBD (Homo sapiens, UniProt P51449); test: Gal4-RORγ Luciferase Reporter Assay in HEK-293T Cells; type: cell-based; conditions: HEK-293 cells
T2 construct: expressed in transfected cells; host or cells: HEK-293 cells (pcDNA3.1neo plasmid)
T2 sequence (P51449 269-508 limits assumed): T1 sequence (P51449 269-508 limits assumed)
Outline: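 HEK-293 cells were transiently co-transfected with Gal4-RORγ-LBD and pGL4.31 Gal4-luciferase, with ursolic acid added at 2 μM final. Compounds were incubated overnight at 37° C. in 0.2% DMSO and luminescence read with One-Glo. Max Response is the upper plateau of a 4-parameter logistic fit, with signal lacking ursolic acid or compound set to 100.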

[3] = luciferase reporter, with 2 μM ursolic acid

SMILES | EC50 [1] [nM] | EC50 [2, 3] [nM] | EC50 ([2]; 2 μM ursolic acid) [nM] | TR-FRET Assay Max Response [1] | Gal4-RORγ Assay Max Response [2, 3] | Gal4-RORγ Assay Max Response ([2]; 2 μM ursolic acid)
O=C(O)CC[C@H]1CN(S(=O)(=O)c2cccc(C(F)(F)F)c2)c2cc(-c3cc(Cl)ccc3Cl)ccc2O1 [Compound 2AM, (S)-3-(6-(2,5-dichlorophenyl)-4-((3-(trifluoromethyl)phenyl)-sulfonyl)-3,4-dihydro-2H-benzo[b][1,4]oxazin-2-yl)propanoic acid] | < 500 | < 500 | – | – | – | –
COc1cc(F)cc(-c2ccc3c(c2)N(S(=O)(=O)c2cccc(C(F)(F)F)c2)C[C@H](CCNC(=O)C(C)(C)O)O3)c1F [Compound 30F, (S)-N-(2-(6-(2,5-difluoro-3-methoxyphenyl)-4-((3-(trifluoromethyl)phenyl)sulfonyl)-3,4-dihydro-2H-benzo[b][1,4]oxazin-2-yl)ethyl)-2-hydroxy-2-methylpropanamide] | < 500 | < 500 | – | **** (The symbol “****” indicates a value greater than 200) | * (The symbol “*” indicates a value in the range of 25 to 90) | –
COc1cncc(-c2ccc3c(c2)N(S(=O)(=O)c2cccc(C(F)(F)F)c2)C[C@H](CCC(=O)O)O3)c1 [Compound 2V, (S)-3-(6-(5-methoxypyridin-3-yl)-4-((3-(trifluoromethyl)-phenyl)sulfonyl)-3,4-dihydro-2H-benzo[b][1,4]oxazin-2-yl)propanoic acid] | < 500 | < 500 | – | *** (The symbol “***” indicates a value in the range of greater than 150 to 200) | ** (The symbol “**” indicates a value in the range of greater than 90 to 150) | –
O=C(O)CC[C@H]1CN(S(=O)(=O)c2cccc(C(F)(F)F)c2)c2cc(-c3ncc4ccccn34)ccc2O1 [Compound 4N, (S)-3-(6-(imidazo[1,5-a]pyridin-3-yl)-4-((3-(trifluoromethyl)-phenyl)sulfonyl)-3,4-dihydro-2H-benzo[b][1,4]oxazin-2-yl)propanoic acid] | < 500 | 500 to 5000 | – | **** (The symbol “****” indicates a value greater than 200) | ** (The symbol “**” indicates a value in the range of greater than 90 to 150) | –
O=C(O)CC[C@H]1CN(S(=O)(=O)c2cccc(C(F)(F)F)c2)c2cc(-c3cc(Cl)ccc3F)ccc2O1 [Compound 2C, (S)-3-(6-(5-chloro-2-fluorophenyl)-4-((3-(trifluoromethyl)phenyl)-sulfonyl)-3,4-dihydro-2H-benzo[b][1,4]oxazin-2-yl)propanoic acid] | < 500 | < 500 | – | *** (The symbol “***” indicates a value in the range of greater than 150 to 200) | ** (The symbol “**” indicates a value in the range of greater than 90 to 150) | –
O=S(=O)(c1cccc(C(F)(F)F)c1)N1C[C@H](CC2(CO)COC2)Oc2ccc(-c3cc(F)cc(F)c3Cl)cc21 [Compound 51A, (S)-(3-((6-(2-chloro-3,5-difluoro-phenyl)-4-((3-(trifluoromethyl)-phenyl)sulfonyl)-3,4-dihydro-2H-benzo[b][1,4]oxazin-2-yl)methyl)oxetan-3-yl)methanol] | < 500 | – | < 500 | ** (The symbol “**” indicates a value in the range of greater than 90 to 150) | – | ** (The symbol “**” indicates a value in the range of greater than 90 to 150)
CC(C)c1cccc(S(=O)(=O)N2C[C@H](CNC(=O)C(C)(C)O)Oc3ccc(-c4cc(F)ccc4F)cc32)c1 [Compound 30K, (S)-N-((6-(2,5-difluorophenyl)-4-((3-isopropylphenyl)sulfonyl)-3,4-dihydro-2H-benzo[b][1,4]-oxazin-2-yl)methyl)-2-hydroxy-2-methylpropanamide] | < 500 | < 500 | – | **** (The symbol “****” indicates a value greater than 200) | * (The symbol “*” indicates a value in the range of 25 to 90) | –
O=C(CC1CC1)NC[C@H]1CN(S(=O)(=O)c2cccc(C(F)(F)F)c2)c2cc(-c3cc(F)ccc3F)ccc2O1 [Compound 30AB, (S)-2-cyclopropyl-N-((6-(2,5-difluorophenyl)-4-((3-(trifluoromethyl)phenyl)sulfonyl)-3,4-dihydro-2H-benzo[b][1,4]oxazin-2-yl)methyl)acetamide] | < 500 | < 500 | – | **** (The symbol “****” indicates a value greater than 200) | * (The symbol “*” indicates a value in the range of 25 to 90) | –

The next lines start with results.

EC50 [1] [nM] | EC50 [2, 3] [nM] | EC50 ([2]; 2 μM ursolic acid) [nM] | SMILES | TR-FRET Assay Max Response [1] | Gal4-RORγ Assay Max Response [2, 3] | Gal4-RORγ Assay Max Response ([2]; 2 μM ursolic acid)
< 500 | < 500 | – | CC(C)(O)C(=O)NCC[C@H]1CN(S(=O)(=O)c2cccc(C(F)(F)F)c2)c2cc(-c3cccc(C(F)(F)F)n3)ccc2O1 [Compound 30B, (S)-2-hydroxy-2-methyl-N-(2-(4-((3-(trifluoromethyl)phenyl)-sulfonyl)-6-(6-(trifluoromethyl)-pyridin-2-yl)-3,4-dihydro-2H-benzo[b][1,4]oxazin-2-yl)ethyl)propanamide] | **** (The symbol “****” indicates a value greater than 200) | ** (The symbol “**” indicates a value in the range of greater than 90 to 150) | –
< 500 | < 500 | – | CN(C)c1cccc(-c2ccc3c(c2)N(S(=O)(=O)c2cccc(C(F)(F)F)c2)C[C@H](CCNC(=O)C(C)(C)O)O3)n1 [Compound 30A, (S)-N-(2-(6-(6-(dimethylamino)-pyridin-2-yl)-4-((3-(trifluoro-methyl)phenyl)sulfonyl)-3,4-dihydro-2H-benzo[b][1,4]-oxazin-2-yl)ethyl)-2-hydroxy-2-methylpropanamide] | **** (The symbol “****” indicates a value greater than 200) | * (The symbol “*” indicates a value in the range of 25 to 90) | –
< 500 | < 500 | – | O=C(O)[C@H](O)CC[C@H]1CN(S(=O)(=O)c2cccc(C(F)(F)F)c2)c2cc(-c3cc(F)ccc3F)ccc2O1 [Compound 38, (R)-4-((S)-6-(2,5-difluorophenyl)-4-((3-(trifluoromethyl)phenyl)sulfonyl)-3,4-dihydro-2H-benzo[b][1,4]oxazin-2-yl)-2-hydroxybutanoic acid] | *** (The symbol “***” indicates a value in the range of greater than 150 to 200) | ** (The symbol “**” indicates a value in the range of greater than 90 to 150) | –
< 500 | 500 to 5000 | – | COc1cccc(-c2ccc3c(c2)N(S(=O)(=O)c2cccc(C(F)(F)F)c2)C[C@H](CCC(=O)O)O3)n1 [Compound 4E, (S)-3-(6-(6-methoxypyridin-2-yl)-4-((3-(trifluoromethyl)-phenyl)sulfonyl)-3,4-dihydro-2H-benzo[b][1,4]oxazin-2-yl)propanoic acid] | **** (The symbol “****” indicates a value greater than 200) | ** (The symbol “**” indicates a value in the range of greater than 90 to 150) | –
< 500 | < 500 | – | COc1cccc(-c2cc3c(cc2Cl)O[C@@H](CCC(=O)O)CN3S(=O)(=O)c2cccc(C(F)(F)F)c2)c1 [Compound 22C, (S)-3-(7-chloro-6-(3-methoxyphenyl)-4-((3-(trifluoromethyl)phenyl)sulfonyl)-3,4-dihydro-2H-benzo[b][1,4]-oxazin-2-yl)propanoic acid] | **** (The symbol “****” indicates a value greater than 200) | ** (The symbol “**” indicates a value in the range of greater than 90 to 150) | –
